Read-outs that look alike come from different tables or passages of the source.
How the values were obtained:
pAKT in BT474 cells = test: Cell-based pAKT HTRF assay in BT474 cells; details: BT474 cells, 4 hr incubation, read-out: pAKT inhibition IC50 in BT474 cells
In short: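 BT474 cells in DMEM/10% FBS were treated the day after seeding with a 9-point, 3-fold compound series from 3 μM (0.25% DMSO) for 4 hr. Lysates were mixed with d2 and Eu cryptate anti-pAKT antibodies and incubated 4-24 h at room temperature. HTRF was read with excitation at 320 nm and emission at 615 nm.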

[1] = target: Cys242 in human PIK3CA (157-299) (Homo sapiens (Human), UniProt P42336); test: Covalent modification assay using MALDI-TOF MS; assay type: biochemical; details: 4 h reaction time point
Chain of Cys242 in human PIK3CA (157-299) (P42336 157-299): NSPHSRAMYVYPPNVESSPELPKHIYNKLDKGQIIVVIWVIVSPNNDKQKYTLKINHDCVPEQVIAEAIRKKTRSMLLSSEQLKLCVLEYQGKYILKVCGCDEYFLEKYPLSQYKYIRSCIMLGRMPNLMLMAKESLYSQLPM
In short: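 PIK3CA (157-299), 3.33 or 1 μM in 20 mM HEPES, 150 mM NaCl, 2 mM MgCl2, pH 7.3, was incubated with compound at room temperature in the dark for 15 min, 30 min, 2 h or 4 h. Linear MALDI-TOF read-out; % modification = adduct peak height over summed heights of all protein species.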

[2] = 3.33 μM protein target, 1:7.5 protein to compound ratio (compounds 1-852)
[3] = 1 μM protein target, 1:5 protein to compound ratio (compounds 853-1279)
[4] = Homo sapiens, BT-474, Compounds 10-999

SMILES	IC50 (pAKT in BT474 cells; Compounds 10-999)	% of modification [1, 2]	% of modification [1, 3]	IC50 (pAKT in BT474 cells; Compounds 1000-1279)	IC50 (pAKT in BT474 cells; [4])
C=C(F)C(=O)N1CCn2nc(-c3nc(-c4cncc(C#N)c4)c4ccsc4c3-c3ccc(F)cc3OC(C)C)cc2C1 [Compound 303]	100 to 1000 nM	A (percent of modification of PIK3CA protein ≥75%)	–	–	–
C=CC(=O)N1CC(n2cc(-c3nc(-c4ccc5c(c4)CCN(C)C5)c4ccsc4c3-c3ccc(F)cc3OCCOC)cn2)C1 [Compound 78]	< 100 nM	A (percent of modification of PIK3CA protein ≥75%)	–	–	–
C=CC(=O)N1Cc2cc(-c3nc(-c4cnnc(C)c4)c4ccsc4c3-c3c(F)cc(F)cc3OC[C@@H](C)O)nn2C[C@H]1C [Compound 743]	< 100 nM	A (percent of modification of PIK3CA protein ≥75%)	–	–	–
C=CC(=O)N1CC(n2cc(-c3nc(-c4ccc5c(c4)CCNC5)c4ccsc4c3-c3ccc(F)cc3OCCOC)ccc2=O)C1 [Compound 157]	< 100 nM	A (percent of modification of PIK3CA protein ≥75%)	–	–	–
C=CC(=O)N1CC[C@H](n2cc(-c3nc(-c4ccnc(N)c4)c4ccsc4c3-c3ccc(F)cc3OCC3CCNC(=O)C3)ccc2=O)C1 (stereo partly shown) [Compound 241]	100 to 1000 nM	A (percent of modification of PIK3CA protein ≥75%)	–	–	–
C=CC(=O)N1CCn2nc(-c3nc(-c4ccc5c(c4)CNC5=O)c4ccsc4c3-c3c(F)cc(F)cc3OCCO)cc2C1C (stereo not shown) [Compound 891]	< 100 nM	–	A (percent of modification of PIK3CA protein ≥75%)	–	–
C=C(F)C(=O)N1CCn2nc(-c3nc(-c4ccc5c(c4)CCN(C)C5)c4ccsc4c3-c3ccc(F)cc3OC(C)C)nc2C1 [Compound 255]	100 to 1000 nM	A (percent of modification of PIK3CA protein ≥75%)	–	–	–
C=CC(=O)N1CCc2nc(-c3nc(-c4cnn(CC(F)F)c4)c4ccsc4c3-c3ccc(F)cc3OCCOC)sc2C1 [Compound 125]	< 100 nM	A (percent of modification of PIK3CA protein ≥75%)	–	–	–
C=CC(=O)N1CCc2ccc(-c3nc(-c4cnc5c(c4)CN(C)CC5)c4ccsc4c3-c3c(F)cc(F)cc3OCCO)cc2C1 [Compound 498]	< 100 nM	A (percent of modification of PIK3CA protein ≥75%)	–	–	–
C=CC(=O)N1CCc2ncc(-c3nc(-c4cnc(C)n4C)c4ccsc4c3-c3c(F)cc(F)cc3OC(C)C)cc2C1 [Compound 412]	< 100 nM	A (percent of modification of PIK3CA protein ≥75%)	–	–	–
C=CC(=O)N1CCn2nc(-c3nc(-c4ccc5c(c4)CN(C)C(=O)C5)c4ccsc4c3-c3c(F)cc(F)cc3OCCOC)cc2C1C (stereo not shown) [Compound 983]	< 100 nM	–	A (percent of modification of PIK3CA protein ≥75%)	–	–
C=CC(=O)N1CCc2nc(-c3nc(-c4cnn(CCO)c4)c4ccsc4c3-c3ccc(F)cc3OCCOC)sc2C1 [Compound 126]	< 100 nM	A (percent of modification of PIK3CA protein ≥75%)	–	–	–
C=CC(=O)N1CCn2nc(-c3nc(-c4ccc(OCCN5CC(F)(F)C5)cc4)c4ccsc4c3-c3c(F)cc(F)cc3OCCOC)cc2C1C (stereo not shown) [Compound 1062]	–	–	A (percent of modification of PIK3CA protein ≥75%)	< 100 nM	–
C=CC(=O)N1CCn2nc(-c3nc(-c4ccc(=O)n(C)c4)nc(C)c3-c3ccc(F)cc3OC(C)C)cc2C1 [Compound 331, 5-[5-(4-fluoro-2-isopropoxy-phenyl)-4-methyl-6-(5-prop-2-enoyl-6,7-dihydro-4H-pyrazolo[1,5-a]pyrazin-2-yl)pyrimidin-2-yl]-1-methyl-pyridin-2-one]	–	A (percent of modification of PIK3CA protein ≥75%)	–	–	1000 to 3000 nM
C=CC(=O)N1Cc2cc(-c3nc(-c4cnn(C)c4)c4ccsc4c3-c3c(F)cc(F)cc3OCCO)nn2CC1C (stereo not shown) [Compound 534]	< 100 nM	A (percent of modification of PIK3CA protein ≥75%)	–	–	–
C=CC(=O)N1CCn2nc(-c3nc(-c4ccn(C5CN(C)C5)c(=O)c4)c4ccsc4c3-c3c(F)cc(F)cc3OCCOC)cc2C1C (stereo not shown) [Compound 1080]	–	–	A (percent of modification of PIK3CA protein ≥75%)	< 100 nM	–

SMILES	IC50 (pAKT in BT474 cells; Compounds 10-999)	% of modification [1, 2]	% of modification [1, 3]	IC50 (pAKT in BT474 cells; Compounds 1000-1279)	IC50 (pAKT in BT474 cells; [4])
C=CC(=O)N1CCn2nc(-c3nc(-c4cnn(C)c4)ccc3-c3ccc(F)cc3OCCOC)cc2C1 [Compound 322, 1-[2-[3-[4-fluoro-2-(2-methoxyethoxy)phenyl]-6-(1-methylpyrazol-4-yl)-2-pyridyl]-6,7-dihydro-4H-pyrazolo[1,5-a]pyrazin-5-yl]prop-2-en-1-one]	–	C (25%≤percent of modification <50%)	–	–	> 3000 nM
C=C(F)C(=O)N1Cc2cc(-c3nc(-c4ccc5c(cnn5C)c4)c4ccsc4c3-c3c(F)cc(F)cc3OCCOC)nn2CC1C (stereo not shown) [Compound 873]	100 to 1000 nM	–	D (percent of modification <25%)	–	–
C=CC(=O)N1CCn2nc(-c3nc(-c4ccc5ncn(C)c5c4)c4ccsc4c3-c3c(F)cc(F)cc3OCCO)cc2[C@H]1C [Compound 653]	< 100 nM	B (50%<percent of modification <75%)	–	–	–
C=CC(=O)N1CCc2ccc(-c3nc(-c4ccc5c(c4)CNC(=O)C5)c4ccsc4c3-c3ccc(F)cc3OC)cc2C1 [Compound 80]	100 to 1000 nM	A (percent of modification of PIK3CA protein ≥75%)	–	–	–
C=CC(=O)N1Cc2cc(-c3nc(-c4ccc5cn(C)nc5c4)c4ccsc4c3-c3c(F)cc(F)cc3OC)nn2C[C@H]1C [Compound 844]	< 100 nM	A (percent of modification of PIK3CA protein ≥75%)	–	–	–
C=CC(=O)N1CCc2oc(-c3nc(-c4ccc5c(c4)CCNC5)c4ccsc4c3-c3ccc(F)cc3OC)nc2C1 [Compound 112, 1-[2-[7-(4-fluoro-2-methoxy-phenyl)-4-(1,2,3,4-tetrahydroisoquinolin-6-yl)thieno[3,2-c]pyridin-6-yl]-6,7-dihydro-4H-oxazolo[4,5-c]pyridin-5-yl]prop-2-en-1-one]	–	A (percent of modification of PIK3CA protein ≥75%)	–	–	100 to 1000 nM
C=CC(=O)N1CCc2nc(-c3nc(-c4ccc5c(c4)CNC5=O)c4ccsc4c3-c3c(F)cc(F)cc3OC(C)C)sc2C1 (single isomer, unassigned) [Compound 414]	< 100 nM	A (percent of modification of PIK3CA protein ≥75%)	–	–	–
C=C(F)C(=O)N1CCn2nc(-c3nc(-c4ccc5c(c4)[C@@H](O)CC5)c4ccsc4c3-c3ccc(F)cc3OC(C)C)cc2C1 [Compound 308]	100 to 1000 nM	A (percent of modification of PIK3CA protein ≥75%)	–	–	–
C=CC(=O)N1CCc2nc(-c3nc(-c4ccc5c(c4)CCN(C)C5)c4ccsc4c3-c3c(F)cc(F)cc3OCC(F)F)sc2C1 [Compound 470]	100 to 1000 nM	A (percent of modification of PIK3CA protein ≥75%)	–	–	–
C=CC(=O)N1CCn2nc(-c3nc(-c4ccc5c(c4)CCN(C)CC5)c4c(c3-c3c(F)cc(F)cc3OCCOC)CCC4)cc2[C@H]1C [Compound 1223]	–	–	A (percent of modification of PIK3CA protein ≥75%)	< 100 nM	–
C=C(F)C(=O)N1CCn2nc(-c3nc(-c4ccc(=O)n(C)c4)c4ccsc4c3-c3ccc(F)cc3OCCOC)cc2C1 [Compound 278]	100 to 1000 nM	B (50%<percent of modification <75%)	–	–	–
C=CC(=O)N1CCc2ncc(-c3nc(-c4cnc5c(c4)CN(C)CC5)c4ccsc4c3-c3c(F)cc(F)cc3OCCOC)cc2C1 [Compound 378]	< 100 nM	A (percent of modification of PIK3CA protein ≥75%)	–	–	–
C=CC(=O)N1CCc2nc(-c3nc(-c4ccc5c(c4)CNC5=O)c4ccsc4c3-c3c(F)cc(F)cc3OCCO)sc2C1 (single isomer, unassigned) [Compound 1033]	–	–	D (percent of modification <25%)	> 1000 nM	–
C=C(F)C(=O)N1Cc2cc(-c3nc(-c4ccc5c(c4)CCN(C)C5)c4ccsc4c3-c3c(F)cc(F)cc3OC(C)C)nn2CC1C (stereo not shown) [Compound 473]	100 to 1000 nM	D (percent of modification <25%)	–	–	–
C=CC(=O)N1CCn2nc(-c3nc(-c4ccc(OCCN(C)C)nc4)c4ccsc4c3-c3c(F)cc(F)cc3OCCOC)cc2C1C (stereo not shown) [Compound 1065]	–	–	A (percent of modification of PIK3CA protein ≥75%)	< 100 nM	–
C=CC(=O)N1CCc2nc(-c3nc(-c4ccc5nn(C)cc5c4)c4ccsc4c3-c3c(F)cc(F)cc3OCCO)sc2C1 [Compound 1053]	–	–	A (percent of modification of PIK3CA protein ≥75%)	< 100 nM	–
